The target of one series is CYP1A2 (Homo sapiens (Human), UniProt P05177). As to the kind of experiment: Inhibition of cytochrome P450 isozyme CYP1A2. Conditions: for IC50: recombinant enzyme. It counts as in vitro ADME. The protocol: (§1) A total of six specific probe substrates of six isozymes of CYPs, i.e., α-Naphthoflavone (CYP1A2), Sulphaphenazole (CYP2C9), Ticlopidine (CYP2C19), Quinidine (CYP2D6), Ketoconazole (CYP3A4), and Montelukast (CYP2C8) were co-incubated with recombinant hepatic drug enzymes CYP1A2, CYP2C9, CYP2C19, CYP2D6, CYP3A4, and CYP2C8 and test compounds, respectively. Nicotinamide adenine dinucleotide phosphate (NADP+), D-glucose-6-phosphate (G6P) and glucose-6-phosphate dehydrogenase (G6DHP) were added to start the reaction. At the end of the reaction, the corresponding half maximal inhibitory concentrations (IC50) were calculated by the fluorescence detection method (Ex490 nm/Em520 nm).
CYP1A2, sequence (P05177 whole entry): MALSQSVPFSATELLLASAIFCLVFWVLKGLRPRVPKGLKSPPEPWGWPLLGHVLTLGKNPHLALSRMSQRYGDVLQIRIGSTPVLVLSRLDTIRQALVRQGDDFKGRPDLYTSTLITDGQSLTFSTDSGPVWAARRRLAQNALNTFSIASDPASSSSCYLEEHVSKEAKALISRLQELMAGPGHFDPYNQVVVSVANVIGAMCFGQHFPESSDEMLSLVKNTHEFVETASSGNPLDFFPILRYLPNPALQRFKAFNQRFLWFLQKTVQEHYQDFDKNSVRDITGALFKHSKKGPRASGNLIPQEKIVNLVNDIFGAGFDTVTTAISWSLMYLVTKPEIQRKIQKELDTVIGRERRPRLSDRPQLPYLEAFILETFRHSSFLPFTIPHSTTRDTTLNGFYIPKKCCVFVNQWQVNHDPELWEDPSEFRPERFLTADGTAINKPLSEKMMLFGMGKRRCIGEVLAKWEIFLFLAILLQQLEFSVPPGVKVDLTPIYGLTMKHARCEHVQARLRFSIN

Another series has as its target CYP2C19 (Homo sapiens (Human), UniProt P33261). Description: Inhibition of cytochrome P450 isozyme CYP2C19. It is filed as in vitro ADME. Conditions: for IC50: recombinant enzyme. The protocol:
as §1

For the next series, the target named is CYP3A4 (Homo sapiens (Human), UniProt P08684). Description: Inhibition of cytochrome P450 isozyme CYP3A4. It counts as in vitro ADME. Conditions: for IC50: recombinant enzyme. The protocol: as §1
CYP3A4, sequence (P08684 whole entry): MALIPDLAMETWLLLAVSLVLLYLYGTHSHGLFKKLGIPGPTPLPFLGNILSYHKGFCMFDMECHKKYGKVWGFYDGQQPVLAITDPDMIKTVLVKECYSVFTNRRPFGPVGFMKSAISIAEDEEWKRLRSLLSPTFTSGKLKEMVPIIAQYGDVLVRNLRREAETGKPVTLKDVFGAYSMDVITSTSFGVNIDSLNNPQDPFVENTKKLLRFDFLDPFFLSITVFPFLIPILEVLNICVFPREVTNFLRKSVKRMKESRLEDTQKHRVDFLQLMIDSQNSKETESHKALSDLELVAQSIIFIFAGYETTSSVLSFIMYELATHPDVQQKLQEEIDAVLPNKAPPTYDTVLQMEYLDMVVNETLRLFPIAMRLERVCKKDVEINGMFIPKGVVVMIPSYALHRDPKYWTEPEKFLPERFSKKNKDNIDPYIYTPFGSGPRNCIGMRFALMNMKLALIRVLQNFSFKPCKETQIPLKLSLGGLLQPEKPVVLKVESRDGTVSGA
For another series, the target named is CYP2C8 (Homo sapiens (Human), UniProt P10632). Description: Inhibition of cytochrome P450 isozyme CYP2C8. It is filed as in vitro ADME. As to conditions: for IC50: recombinant enzyme. On the procedure: as §1
CYP2C8, sequence (P10632 whole entry): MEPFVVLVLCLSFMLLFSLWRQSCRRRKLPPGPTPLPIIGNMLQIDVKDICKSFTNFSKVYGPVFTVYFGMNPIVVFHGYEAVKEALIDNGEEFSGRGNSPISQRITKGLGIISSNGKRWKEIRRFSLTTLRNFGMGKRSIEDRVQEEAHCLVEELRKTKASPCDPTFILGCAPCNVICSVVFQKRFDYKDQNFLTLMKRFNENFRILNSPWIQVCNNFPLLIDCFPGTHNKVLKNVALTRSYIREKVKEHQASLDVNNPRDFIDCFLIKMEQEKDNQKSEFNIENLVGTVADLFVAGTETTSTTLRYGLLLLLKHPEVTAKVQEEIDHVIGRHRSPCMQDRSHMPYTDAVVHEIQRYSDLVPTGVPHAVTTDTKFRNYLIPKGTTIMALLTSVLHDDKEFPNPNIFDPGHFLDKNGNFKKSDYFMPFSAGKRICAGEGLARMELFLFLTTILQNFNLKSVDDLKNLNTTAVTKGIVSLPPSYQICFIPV
Series [1] in a line: Experiment on water solubility (HPLC-UV). It counts as physicochemical. The protocol: The detection was carried out in accordance with the high performance liquid chromatography (General Principles 0512 of Chinese Pharmacopoeia Volume IV (2020)):
Chromatographic conditions for the HPLC-UV method: mobile phase: 0.02 M KH2PO4 aqueous solution-acetonitrile (90:10), gradient elution; chromatographic column: C18; detection wavelength: 210 nm. The water solubility was calculated based on the peak area by the external standard method.

For a further series, the target named is ETa (Homo sapiens (Human), UniProt P25101). As to the kind of experiment: Calcium flux assay on ETa cell line. It counts as cell-based. As to conditions: ETa/HEK293, calcium flux, endothelin-1 agonist. The protocol:
Test materials: a) cell line: ETa/HEK293; b) vehicles: DMEM, Invitrogen (Cat #11960); Geneticin, Invitrogen (Cat #10131); c) reagent: Fluo-4 Direct, (Invitrogen, Cat #F10471); d) instruments: 384 well Poly-D-Lysine protein coating plate, Greiner #781946; Vi-cell XR Cell Viability Analyzer, Beckman Coulter; Incubator, Thermo.
For the employed agonist endothelin factor (endothelin-1, ET-1) master plate: the agonist was diluted from 50 μM to 15 μM with the test buffer solution.
For antagonist (BQ123, Am J Physiol. 1994 April; 266 (4 Pt 2): H1327-31.) plates and the compound plates: the antagonist and the tested compounds were diluted with DMSO at a gradient ratio of 1:4 to obtain 10 concentration points. Afterwards, 900 nL of each compound solution was transferred to the master plate and 30 μL of the test buffer solution was added. • a) The cell line was removed from the incubator, and 20 μL of 2X Fluo-4 Direct™ buffer solution was added gently by a pipette to a 384-well cell culture plate. • b) The cell plate was incubated at 37° C. for 50 min in the environment of 5% CO2, and then incubated at room temperature for 10 min. • c) The cell plate was removed from the incubator and placed in FLIPR. The compound plates and the tip box were placed in FLIPR. • d) Regarding the EC80 plate: • 1) Operations were conducted on […]. • 2) 10 μL of compound solution was transferred from the EC80 master plate to the cell plate. • 3) Fluorescence signals were read. • 4) The read signals were counted, and the EC80 value of each cell line was calculated using FLIPR. • 5) For the concentration of the compound plate, a solution having a concentration 6 times that of the reference agonist EC80 was formulated. • e) Regarding the compound plate: • 1) Operations were conducted on […]. • 2) 10 μL of compound was transferred to the cell plate. • 3) Fluorescence signals were read. • 4) 10 μL of solution having a concentration 6 times that of the reference agonist EC80 was transferred to the cell plate. • 5) Fluorescence signals were read. • f) Data analysis by Prism
(In general: A change in cytosolic calcium serves as a functional read-out for many receptors and channels.)

The next series concerns the target CYP2C9 (Homo sapiens (Human), UniProt P11712). Description: Inhibition of cytochrome P450 isozyme CYP2C9. It counts as in vitro ADME. Conditions: for IC50: recombinant enzyme. On the procedure: as §1
Series [2] is described as follows: Pharmacokinetic test in rats. It counts as in vivo. Conditions: SD rats; for Bioavailability: PO 10 mg/kg vs IV 1 mg/kg; for in vivo exposure after oral administration (in words) / oral bioavailability versus reference compound (in words): oral gavage. The protocol: Experimental animal: SD rats, 6-8 weeks. Six animals were used for each example compound.
Drug solution formulation: all of the Experimental Example compounds were formulated into 1 mg/mL solution. The solution system was 5% DMSO+20% Solutol HS15+75%(20% HP—β-CD aqueous solution).
Grouping for administration: the first group was administered by oral gavage (PO, three SD rats, 10 mg/kg, fasted overnight before administration, and fed after 4 hours following the administration); and the second group was administered by intravenous injection in dorsum of foot (IV, three SD rats, 1 mg/kg, fed freely).
Blood sampling time and treatment method: Blood was collected via the jugular vein at the following 7 to 8 points in time: 0.083 (only in the intravenous injection group), 0.25, 0.5, 1, 2, 4, 8, and 24 hours. The blood samples were centrifuged (2000 g, 4° C., 5 min) to obtain plasma. The samples were stored at −70° C. before analysis.
Analytical instruments and conditions: LC-MS/MS-33 (Triple Quad 6500+); MS: positive, ESI; mobile phases: Mobile phase A: H2O-0.025% FA-1 mM NH4OAc, Mobile phase B: MeOH-0.025% FA-1 mM NH4OAc; flow rate: 0.60 mL/min; chromatographic column: ACQUITY UPLC-BEH C18 (2.1×50 mm, 1.7 μm); column temperature: 60° C.

Setting [3] is: read-out: IC50 activity against ETa (class).
[4] abbreviates: fluorescence detection, read-out: IC50 CYP1A2.
[5] abbreviates: fluorescence detection, read-out: IC50 CYP2C19.
Setting [6] is: fluorescence detection, read-out: IC50 CYP3A4.
[7] abbreviates: fluorescence detection, read-out: IC50 CYP2C8.
Setting [8] is: fluorescence detection, read-out: IC50 CYP2C9.

≈ marks a conversion by molar mass, not a printed value. Read-outs that look alike come from different tables or passages of the source. Some results are limits rather than exact numbers.

CYP2C9, sequence (P11712 whole entry): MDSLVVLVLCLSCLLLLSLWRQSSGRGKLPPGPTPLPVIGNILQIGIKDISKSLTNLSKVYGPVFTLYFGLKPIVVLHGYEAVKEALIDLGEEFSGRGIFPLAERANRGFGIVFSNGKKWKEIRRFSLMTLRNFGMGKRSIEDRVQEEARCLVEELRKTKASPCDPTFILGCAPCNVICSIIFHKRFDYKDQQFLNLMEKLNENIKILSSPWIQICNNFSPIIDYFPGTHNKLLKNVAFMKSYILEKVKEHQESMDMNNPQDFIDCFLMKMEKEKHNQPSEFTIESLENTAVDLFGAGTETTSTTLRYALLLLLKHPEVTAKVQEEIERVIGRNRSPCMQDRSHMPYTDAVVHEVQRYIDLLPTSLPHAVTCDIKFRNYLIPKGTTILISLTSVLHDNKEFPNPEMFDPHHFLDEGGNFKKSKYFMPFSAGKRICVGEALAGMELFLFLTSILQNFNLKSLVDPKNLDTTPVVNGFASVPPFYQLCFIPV
ETa, sequence (P25101 21-427): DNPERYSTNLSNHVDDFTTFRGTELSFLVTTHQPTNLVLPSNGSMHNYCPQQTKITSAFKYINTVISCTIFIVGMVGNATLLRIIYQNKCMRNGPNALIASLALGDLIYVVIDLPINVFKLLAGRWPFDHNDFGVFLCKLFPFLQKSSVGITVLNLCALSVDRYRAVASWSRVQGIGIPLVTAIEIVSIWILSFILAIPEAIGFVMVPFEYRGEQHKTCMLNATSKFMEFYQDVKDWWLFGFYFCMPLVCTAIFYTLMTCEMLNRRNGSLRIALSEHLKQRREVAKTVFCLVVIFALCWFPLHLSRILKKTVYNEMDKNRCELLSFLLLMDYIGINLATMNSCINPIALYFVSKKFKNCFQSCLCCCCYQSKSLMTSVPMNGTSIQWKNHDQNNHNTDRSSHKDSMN
CYP2C19, sequence (P33261 whole entry): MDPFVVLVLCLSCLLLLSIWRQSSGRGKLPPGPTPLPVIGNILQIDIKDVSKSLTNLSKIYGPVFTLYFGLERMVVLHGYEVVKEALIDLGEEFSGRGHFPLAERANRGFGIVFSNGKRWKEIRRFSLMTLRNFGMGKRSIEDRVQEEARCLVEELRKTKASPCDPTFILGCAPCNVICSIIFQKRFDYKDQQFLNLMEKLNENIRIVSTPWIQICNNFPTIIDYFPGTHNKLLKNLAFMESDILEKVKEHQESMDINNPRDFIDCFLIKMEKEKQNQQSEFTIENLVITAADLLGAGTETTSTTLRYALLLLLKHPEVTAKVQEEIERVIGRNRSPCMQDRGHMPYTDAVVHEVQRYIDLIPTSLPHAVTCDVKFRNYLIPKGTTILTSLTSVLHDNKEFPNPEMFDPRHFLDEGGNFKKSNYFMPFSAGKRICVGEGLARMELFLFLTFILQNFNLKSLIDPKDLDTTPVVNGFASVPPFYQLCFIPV

The term IC50 denotes the midpoint of a concentration-inhibition curve. One may read the Cmax as the maximum level reached in the sampled fluid or tissue. For orientation: Tmax means the time at which the peak concentration occurs. For the molecule `CCCCC1=N[C@@]2(CC3C[C@H]3C2)C(=O)N1Cc1ccc(-c2ccccc2S(=O)(=O)Nc2noc(C)c2C)c(COCC)c1` (stereo partly drawn) [Example 3], on CYP1A2, the “risk of inhibiting CYP1A2 activity (conclusion in words)” value (from here on “risk of inhibiting CYP1A2 activity”) is “no risk of inhibiting” and the IC50 is > 10 µM. Further, at CYP2C19, the “risk of inhibiting CYP2C19 activity (conclusion in words)” value (shortened to “risk of inhibiting CYP2C19 activity”) was “no risk of inhibiting” and the IC50 was > 10 µM. In addition, on CYP3A4, the “risk of inhibiting CYP3A4 activity (conclusion in words)” value (“risk of inhibiting CYP3A4 activity” for short) is listed as “had an inhibitory effect” and the IC50 fell in the range of 1 to 10 µM. For the same molecule, at CYP2C8, the “risk of inhibiting CYP2C8 activity (conclusion in words)” value (shortened to “risk of inhibiting CYP2C8 activity”) was “no risk of inhibiting” and the IC50 was > 10 µM. In series [1] (FaSSGF (pH1.6)), the “Solubility FaSSGF (pH1.6)” value is reported as >1 mg/mL. Further, in series [1] (FaSSIF (pH6.5)), the “Solubility FaSSIF (pH6.5)” value was found to be 0.19 mg/mL. Also, the “Solubility FeSSIF (pH5.0)” value in series [1] (FeSSIF (pH5.0)) was found to be 0.06 mg/mL. Besides, in series [1] (pH7.4), the “Solubility pH7.4” value is given as 0.82 mg/mL. The IC50 on ETa (setting [3]) lay in the range of 0.01 to 0.1 µM. For the same molecule, the IC50 on ETa (read-out: IC50 against ETa) amounted to 0.0105 µM. Also, on CYP2C9, the “risk of inhibiting CYP2C9 activity (conclusion in words)” value (“risk of inhibiting CYP2C9 activity” below) is recorded as “no risk of inhibiting” and the IC50 was > 10 µM. Further, in series [2] (PO 10 mg/kg), the AUClast worked out at 24407 ng·h/mL, the Cmax is given as 2993 ng/mL, the T1/2 stood at 7.00 h and the Tmax worked out at 2.17 h. Also, in series [2], the Bioavailability is 69.3%, the “in vivo exposure after oral administration (in words)” value is “high in vivo exposure” and the “oral bioavailability versus reference compound (in words)” value is recorded as “higher oral bioavailability”.

Turning to `CCCCC1=N[C@@]2(CC3C[C@H]3C2)C(=O)N1Cc1ccc(-c2ccccc2S(=O)(=O)Nc2noc(C)c2Cl)c(COCC)c1` (stereo partly drawn) [Example 7], at CYP1A2 (conclusion to Table 4), the “risk of inhibiting CYP1A2 activity” value was “no risk of inhibiting”. In addition, the IC50 on CYP1A2 (setting [4]) was > 10 µM; on CYP2C19 (setting [5]), > 10 µM; at CYP3A4 (setting [6]), > 10 µM; at CYP2C8 (setting [7]) it was > 10 µM; at ETa (setting [3]), 0.01 to 0.1 µM; on ETa (read-out: IC50 against ETa), 0.0243 µM. In addition, the IC50 at CYP2C9 (setting [8]) was > 10 µM. Further, the “risk of inhibiting CYP2C19 activity” value on CYP2C19 (conclusion to Table 4) is “no risk of inhibiting”. Also, the “risk of inhibiting CYP3A4 activity” value on CYP3A4 (conclusion to Table 4) was “no risk of inhibiting”. Besides, the “risk of inhibiting CYP2C8 activity” value on CYP2C8 (conclusion to Table 4) is recorded as “no risk of inhibiting”. For the same molecule, the “Solubility FaSSGF (pH1.6)” value in series [1] (FaSSGF (pH1.6)) is 0.24 mg/mL. The “Solubility FaSSIF (pH6.5)” value in series [1] (FaSSIF (pH6.5)) was 0.87 mg/mL. The “Solubility FeSSIF (pH5.0)” value in series [1] (FeSSIF (pH5.0)) was 0.08 mg/mL. The “Solubility pH7.4” value in series [1] (pH7.4) was 0.84 mg/mL. Besides, the “risk of inhibiting CYP2C9 activity” value at CYP2C9 (conclusion to Table 4) was “no risk of inhibiting”. This molecule also displayed an AUClast in series [2] (PO 10 mg/kg) of 23530 ng·h/mL. In addition, in series [2] (PO 10 mg/kg), the Cmax is recorded as 3080 ng/mL. Also, in series [2] (PO 10 mg/kg), the T1/2 amounted to 5.28 h. Besides, the Tmax in series [2] (PO 10 mg/kg) is 3.33 h. In series [2], this molecule displayed a Bioavailability of 43.4%. The “in vivo exposure after oral administration (in words)” value in series [2] is reported as “high in vivo exposure”. In series [2], the “oral bioavailability versus reference compound (in words)” value is “higher oral bioavailability”.

As a reminder, the solubility is the dissolved amount per volume that the medium holds. What is called AUC(0-t) is exposure summed from dosing to a finite time, without extrapolation to infinity. What is called half-life is how long it takes for the measured level to halve. A higher half-life goes with slow decline. As to `CCCCC1=NC2(CCCC2)C(=O)N1Cc1ccc(-c2ccccc2S(=O)(=O)Nc2noc(C)c2C)c(COCC)c1` [Sparsentan, reference compound], the “risk of inhibiting CYP1A2 activity” value at CYP1A2 (conclusion to Table 4) is reported as “no risk of inhibiting”. For the same molecule, the IC50 at CYP1A2 (setting [4]) is > 10 µM; at CYP2C19 (setting [5]), > 10 µM; on CYP3A4 (setting [6]), 1 to 10 µM; on CYP2C8 (setting [7]) it was 1 to 10 µM; at ETa (read-out: IC50 against ETa) it was 0.0808 µM; on CYP2C9 (setting [8]) it was > 10 µM. In addition, at CYP2C19 (conclusion to Table 4), the “risk of inhibiting CYP2C19 activity” value was “no risk of inhibiting”. Further, the “risk of inhibiting CYP3A4 activity” value on CYP3A4 (conclusion to Table 4) is “had an inhibitory effect”. For the same molecule, the “risk of inhibiting CYP2C8 activity” value at CYP2C8 (conclusion to Table 4) is listed as “had an inhibitory effect”. For the same molecule, the solubility in series [1] (aqueous medium at pH 7.4 (buffer not named), pH 7.4, aqueous buffer, pH7.4, read-out: Solubility pH7.4) is 210 µg/mL (≈ 354 µM); in series [1] (pH 1.6, fassgf or other biorelevant, FaSSGF (pH1.6), read-out: Solubility FaSSGF (pH1.6)), 130 µg/mL (≈ 219 µM); in series [1] (pH 5, FeSSIF (pH5.0), read-out: Solubility FeSSIF (pH5.0)), 20 µg/mL (≈ 33.7 µM); in series [1] (pH 6.5, FaSSIF (pH6.5), read-out: Solubility FaSSIF (pH6.5)), 80 µg/mL (≈ 135 µM). Moreover, the “risk of inhibiting CYP2C9 activity” value on CYP2C9 (conclusion to Table 4) is reported as “no risk of inhibiting”. The AUC(0-t) in series [2] (rat, plasma, PO 10 mg/kg) turned out to be 18600 ng·h/mL. In series [2] (rat, plasma, PO 10 mg/kg), this molecule gave a half-life of 15.4 h. Also, in series [2] (rat, plasma, read-out: Bioavailability), the Bioavailability came out at 20.6%. Also, the Cmax in series [2] (rat, plasma, PO 10 mg/kg, read-out: Cmax) was found to be 1800 ng/mL. Further, the Tmax in series [2] (rat, plasma, PO 10 mg/kg, read-out: Tmax) came to 1.42 h.

These data come from patent publication US20240417395A1, “DUAL ANTAGONIST AND USE THEREOF” (NICOYA THERAPEUTICS (SHANGHAI) CO., LTD, priority 2021, published 2024).
